The target of this assay is T1, rabbit muscle glycogen phosphorylase b (RMGPb) (Oryctolagus cuniculus, UniProt P00489).
T1 construct: gene PYGM
T1 sequence (P00489 2-843): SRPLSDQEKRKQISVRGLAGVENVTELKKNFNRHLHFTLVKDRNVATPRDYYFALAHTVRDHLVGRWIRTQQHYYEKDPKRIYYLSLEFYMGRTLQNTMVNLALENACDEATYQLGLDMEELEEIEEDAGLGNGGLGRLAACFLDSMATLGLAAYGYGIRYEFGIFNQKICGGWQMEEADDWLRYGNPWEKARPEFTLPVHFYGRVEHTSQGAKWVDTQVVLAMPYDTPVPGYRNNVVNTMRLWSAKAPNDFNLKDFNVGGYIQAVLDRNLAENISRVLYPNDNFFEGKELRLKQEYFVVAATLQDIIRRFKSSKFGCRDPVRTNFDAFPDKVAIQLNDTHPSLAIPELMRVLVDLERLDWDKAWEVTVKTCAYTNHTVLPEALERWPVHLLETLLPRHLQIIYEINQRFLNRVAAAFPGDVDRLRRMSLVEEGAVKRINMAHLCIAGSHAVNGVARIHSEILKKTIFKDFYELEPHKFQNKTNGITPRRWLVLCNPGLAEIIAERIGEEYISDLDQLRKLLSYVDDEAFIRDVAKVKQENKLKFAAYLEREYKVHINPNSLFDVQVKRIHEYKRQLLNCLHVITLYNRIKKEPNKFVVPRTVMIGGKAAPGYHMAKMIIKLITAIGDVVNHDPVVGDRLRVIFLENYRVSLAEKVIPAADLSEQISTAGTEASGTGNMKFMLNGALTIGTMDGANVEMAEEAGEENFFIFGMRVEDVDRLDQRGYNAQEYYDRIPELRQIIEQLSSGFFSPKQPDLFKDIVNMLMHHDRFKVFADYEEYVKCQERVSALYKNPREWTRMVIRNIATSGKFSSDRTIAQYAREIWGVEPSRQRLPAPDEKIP
The assay is described as follows: enzyme kinetics in the direction of glycogen synthesis with purified, recrystallized RMGPb ([…] AMP, […] glycogen). In kind it is biochemical. Particulars: read-out: % inhibition at 1 mM.

The source of these data is PMC6630470, “Anomeric Spironucleosides of β-D-Glucopyranosyl Uracil as Potential Inhibitors of Glycogen Phosphorylase” (Molecules, 2019).

On to `O=c1cc2n(c(=O)[nH]1)[C@@]1(OC2)O[C@H](CO)[C@@H](O)[C@H](O)[C@H]1O` [4b, (3S,3′R,4′S,5′S,6′R)-3′,4′,5′-Trihydroxy-6′-(hydroxymethyl)-3′,4′,5′,6′-tetrahydrospiro[oxazolo[3,4-c]pyrimidine-3,2′-pyran]-5,7(1H,6H)-dione], for which the inhibition at 1000 µM came to 35%.
Next, `O=c1cc2n(c(=O)[nH]1)[C@]1(OC2)O[C@H](CO)[C@@H](O)[C@H](O)[C@H]1O` [4a, (3R,3′R,4′S,5′S,6′R)-3′,4′,5′-Trihydroxy-6′-(hydroxymethyl)-3′,4′,5′,6′-tetrahydrospiro[oxazolo[3,4-c]pyrimidine-3,2′-pyran]-5,7(1H,6H)-dione]: 26%.

In general, inhibition refers to how much of the control response was suppressed.
